Measured values: US10577363B2, “Substituted piperidine compounds” (EPIZYME, INC., priority 2014, dated 2020)

Assays:
[1] = target: T1, SMYD3 (Homo sapiens (Human), UniProt Q9H7B4); assay: SMYD3 cell assay (Trimethyl-MEKK2 In-Cell Western in 293T/17 cells); format: cell-based
Text: Trimethyl-MEKK2-in-Cell Western Assay
MEM/Glutamax medium, Optimem Reduced Serum medium, penicillin-streptomycin, 0.05% trypsin and 1×D-PBS were purchased from Life Technologies, Grand Island, N.Y., USA. PBS-10× was purchased from Ambion, Life Technologies, Grand Island, N.Y., USA. PBS with Tween 20 (PBST (10×)) was purchased from KPL, Gaithersburg, Md., USA. Tet System FBS-approved FBS US Source was purchased from Clontech, Mountain View, Calif., USA. Odyssey blocking buffer, 800CW goat anti-rabbit IgG (H+L) antibody, 680CW Goat anti-mouse IgG (H+L) and Licor Odyssey infrared scanner were purchased from Licor Biosciences, Lincoln, Nebr., USA. Tri-methyl-Lysine [A260]-MEKK2 antibody, MEKK2 and SMYD3 plasmids were made at Epizyme. Anti-flag monoclonal mouse antibody was purchased from Sigma, St. Louis, Mo., USA. Methanol was purchased from VWR, Franklin, Mass., USA. 10% Tween 20 was purchased from KPL, Inc., Gaithersburg, Md., USA. Fugene was purchased from Promega, Madison, Wis., USA. The Biotek ELx405 was purchased from BioTek, Winooski, Vt., USA. The multidrop combi was purchased from Thermo Scientific, Waltham, Mass., USA.
Cell Treatment, in Cell Western (ICW) for Detection of Trimethyl-Lysine-MEKK2 and MEKK2.
Plasmids were prepared for delivery to cells by first mixing 1350 μL Opti-MEM with Fugene (81 μL) in a sterile Eppendorf and incubated for five minutes at room temperature (RT). […] Entire volume of Opti-MEM/Fugene mixture was then added to a microfuge tube containing DNA plasmid, mixed and then incubated×15 minutes at RT. […] Medium was then removed, and cells were washed once with PBS in the flask. Trypsin 0.05% (3 mL) was added and cells incubated for three minutes. Room temperature MEM+10% Tet system FBS was added and cells were mixed gently, and counted using the Vi-cell. Cells were seeded at 100,000 cells/mL in 50 μL MEM/10% Tet FBS/Pen/Strep to a 384 well black/clear poly-D-lysine coated plate containing test agent diluted in DMSO. The final top concentration of test compound was 40 μM. […] Plates were incubated×30 minutes at RT in low-airflow area, followed by incubation at 37° C. under 5% CO2 for 24 hours. Medium was aspirated from all wells of assay plates prior to fixation and permeabilization with ice cold (−20° C.) methanol (90 μL/well) for ten minutes. Plates were rinsed with PBS three times on BioTek ELx405. PBS was removed with a final aspiration, and Odyssey blocking buffer (50 μL/well) was added to each well and incubated for one hour at RT. Primary antibody solution was prepared (anti-trimethyl-MEKK2 at 1:600 dilution plus mouse anti-flag antibody at 1:10,000 dilution in diluent (Odyssey Blocking buffer+0.1% Tween 20)) and 20 μL per well was dispensed using the Multidrop Combi. Assay plates were then sealed with foil, and incubated overnight at 4° C. Plates were washed five times with PBS-Tween (1×) on Biotek ELx405 and blotted on paper towel to remove excess reagent.
First, the ratio for each well was determined by:
Each plate included fourteen control wells of DMSO only treatment (Minimum Inhibition) as well as fourteen control wells for maximum inhibition (Background). The average of the ratio values for each control type was calculated and used to determine the percent inhibition for each test well in the plate. Reference compound was serially diluted two-fold in DMSO for a total of nine test concentrations, beginning at 40 μM.
Percent inhibition was calculated (below).
Non-linear regression curves were generated to calculate the IC50 and dose-response relationship using triplicate wells per concentration of compound.

[2] = target: T1, SMYD3; assay: SMYD3 biochemical assay (SPA, 3H-SAM methylation of MEKK2 protein substrate); details: read-out: SMYD3 Biochem IC50 (μM)*
In short: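 Tritium incorporation into GST-MEKK2 is counted by scintillation proximity after citric acid bead capture. Native human SMYD3 is preincubated with test compound for 30 min at room temperature at pH 8.0 (Tris-Cl, TCEP, BSG, Tween 20) before 3H-SAM and substrate are added; cold SAM at 100 uM final stops turnover.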

[3] = read-out: SMYD3 Cell IC50 (μM)*

T1 sequence (Q9H7B4 whole entry): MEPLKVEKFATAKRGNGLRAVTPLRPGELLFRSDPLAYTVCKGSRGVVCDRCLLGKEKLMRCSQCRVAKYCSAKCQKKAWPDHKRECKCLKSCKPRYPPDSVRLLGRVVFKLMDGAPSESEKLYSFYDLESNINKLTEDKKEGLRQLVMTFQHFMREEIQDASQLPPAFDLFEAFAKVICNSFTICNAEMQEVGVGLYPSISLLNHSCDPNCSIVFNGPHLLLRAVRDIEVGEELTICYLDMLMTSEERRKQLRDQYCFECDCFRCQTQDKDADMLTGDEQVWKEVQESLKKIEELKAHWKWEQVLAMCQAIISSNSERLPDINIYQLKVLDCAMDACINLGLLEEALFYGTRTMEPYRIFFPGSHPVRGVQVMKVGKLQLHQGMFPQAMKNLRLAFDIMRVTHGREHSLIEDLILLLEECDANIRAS

| IC50 [2] [µM] | IC50 [1, 3] [µM] | SMILES | IC50 [1] [µM] |
| --- | --- | --- | --- |
| 0.172 | 3.18 | C[C@H]1C[C@H](NC(=O)c2cc(C3CC3)on2)CCN1C(=O)CC1CCNCC1 [compound 56, 5-cyclopropyl-N-((2S,4R)-2-methyl-1-(2-(piperidin-4-yl)acetyl)piperidin-4-yl)isoxazole-3-carboxamide] |  |
| 0.0716 | 0.947 | C[C@@H]1C[C@H](NC(=O)c2cc(C3CC3)on2)CCN1C(=O)[C@H]1CC[C@H](N)CC1 [compound 57, N-((2R,4R)-1-((1r,4R)-4-aminocyclohexane-1-carbonyl)-2-methylpiperidin-4-yl)-5-cyclopropylisoxazole-3-carboxamide] |  |
| 0.139 | 1.44 | NC[C@@H](Cc1ccc(O)c(Cl)c1)C(=O)N1CCC(NC(=O)c2cc(C3CC3)on2)CC1 [compound 63, (R)-N-(1-(3-amino-2-(3-chloro-4-hydroxybenzyl)propanoyl)piperidin-4-yl)-5-cyclopropylisoxazole-3-carboxamide] |  |
| 0.205 | 1.05 | C[C@@H]1CN(S(=O)(=O)CCN)CCC1NC(=O)c1cc(C2CC2)on1 (stereo partly drawn) [compound 65, N-((3R)-1-((2-aminoethyl)sulfonyl)-3-methylpiperidin-4-yl)-5-cyclopropylisoxazole-3-carboxamide] |  |
| 0.59 | 3.72 | C[C@H]1CN(S(=O)(=O)CCN)CCC1NC(=O)c1cc(C2CC2)on1 (stereo partly drawn) [compound 66, N-((3S)-1-((2-aminoethyl)sulfonyl)-3-methylpiperidin-4-yl)-5-cyclopropylisoxazole-3-carboxamide] |  |
| 0.633 | 2.91 | C[C@@H]1CC(NC(=O)c2cc(C3CC3)on2)CCN1S(=O)(=O)CCN (stereo partly drawn) [compound 77, N-((2R)-1-((2-aminoethyl)sulfonyl)-2-methylpiperidin-4-yl)-5-cyclopropylisoxazole-3-carboxamide] |  |
| 0.155 | 0.792 | C[C@H]1CC(NC(=O)c2cc(C3CC3)on2)CCN1S(=O)(=O)CCN (stereo partly drawn) [compound 78, N-((2S)-1-((2-aminoethyl)sulfonyl)-2-methylpiperidin-4-yl)-5-cyclopropylisoxazole-3-carboxamide] |  |
| 0.156 | 2.5 | N[C@H]1CC[C@H](C(=O)N2CC3CCC2CC3NC(=O)c2cc(C3CC3)on2)CC1 (some centres unmarked) [compound 88, N-(2-((1r,4r)-4-aminocyclohexane-1-carbonyl)-2-azabicyclo[2.2.2]octan-5-yl)-5-cyclopropylisoxazole-3-carboxamide] |  |
| 0.23 | 3.05 | CC(C)C1CC(NC(=O)c2cc(C3CC3)on2)CCN1C(=O)[C@H]1CC[C@H](N)CC1 (some centres unmarked) [compound 99, N-(1-((1r,4r)-4-aminocyclohexane-1-carbonyl)-2-isopropylpiperidin-4-yl)-5-cyclopropylisoxazole-3-carboxamide] |  |
| 0.0968 | 1.93 | O=C(NC1CCN(C(=O)CC2CCNCC2)C(Cc2ccccc2)C1)c1cc(C2CC2)on1 (centres unmarked) [compound 109, N-(2-benzyl-1-(2-(piperidin-4-yl)acetyl)piperidin-4-yl)-5-cyclopropylisoxazole-3-carboxamide] |  |
| 0.0994 | 0.893 | CC[C@@H]1CC(NC(=O)c2cc(C3CC3)on2)CCN1C(=O)[C@H]1CC[C@H](N)CC1 (stereo partly drawn) [compound 110, N-((2R)-1-((1r,4R)-4-aminocyclohexane-1-carbonyl)-2-ethylpiperidin-4-yl)-5-cyclopropylisoxazole-3-carboxamide] |  |

| SMILES | IC50 [2] [µM] | IC50 [1, 3] [µM] | IC50 [1] [µM] |
| --- | --- | --- | --- |
| CC1CN(S(=O)(=O)CCCN)CCC1NC(=O)c1cc(C2CC2)on1 (centres unmarked) [compound 46, N-(1-((3-aminopropyl)sulfonyl)-3-methylpiperidin-4-yl)-5-cyclopropylisoxazole-3-carboxamide] | 0.119 |  | 1.02 |
| N[C@H]1CC[C@H](C(=O)N2[C@@H]3CC[C@H]2C[C@@H](NC(=O)c2cc(C4CC4)on2)C3)CC1 [compound 102, N-((1R,3R,5S)-8-((1r,4R)-4-aminocyclohexane-1-carbonyl)-8-azabicyclo[3.2.1]octan-3-yl)-5-cyclopropylisoxazole-3-carboxamide] | 0.106 | 1.7 |  |
